Source: PMC9652379, “Safety evaluations of a synthetic antimicrobial peptide administered intravenously in rats and dogs” (Scientific Reports, 2022)
Like-named read-outs stand apart in the source and are kept apart here. Positions of bridges follow the written chain, without caps; N, C: chain ends. Non-standard residues stand in square brackets, D forms with d. Residues, ends and D or L forms follow the SMILES beside them. Chains are numbered I, II in the order given. βAla = NCCC(=O)O

What was measured:
beagle dogs = test: Four-week toxicity study with 4-week recovery in dogs: survival, ECG, NOAEL; type: in vivo, dog
Description: Beagle dogs (5/sex/group) were dosed by intravenous infusion once daily for 1 h with 0 (0.9% sodium chloride for injection), 0.5, 1.5 or 4.0 mg/kg/day SET-M33 for four consecutive weeks. The doses were selected in the dog DRF study (above). The dose of 4 mg/kg/day was selected as the highest dose without macroscopic side effects in the DRF study, and was used to evaluate renal toxicity and its reversibility. The dose of 0.5 mg/kg/day was selected as the lowest dose, about one order of magnitude less than the highest dose. The dose of 1.5 mg/kg/day was selected as an approximately median mid-dose. On completion of 4 weeks of infusion, three animals/sex/group were euthanized and necropsied and the remaining two animals/sex/group were held for a 4-week drug free recovery period after which they were euthanized and necropsied. Blood samples were obtained from all animals on days 1 and 28 for toxicokinetic analysis.
Animals were observed daily for mortality and signs of severe toxic or pharmacological effects. […] Blood obtained via jugular venepuncture from anaesthetized dogs was used to analyse blood, coagulation and clinical chemistry parameters for 5 animals/sex/group pre-test and at termination of dosing and from 2 animals/sex/group at the end of recovery.

mouse = conditions: cited from earlier work
[1] = Toxicokinetics in dogs, 4 weeks daily 1-h iv infusion; type: in vivo; conditions: dog; for Cmax / tmax / AUC0-24 / AUC(0-t): iv
Description: Plasma concentrations and the main toxicokinetic parameters of SET-M33 in plasma samples were determined in beagle dogs after intravenous administration of SET-M33 by daily 1-h-infusion at 0.5, 1.5 or 4.0 mg/kg/day or only vehicle for 4 weeks (5 animals/group/sex). Blood samples were taken on day 1 and day 28.
The time when the maximum plasma concentration occurred (Tmax) was at the end of the 1-h infusion in all animals, as expected for this route of administration. Plasma concentrations of SET-M33 at 24 h post-dose were below the limit of quantification (< 20.0 ng/ml) in all animals at all dose levels on day 1 and day 28 (not shown).
On days 1 and 28, blood samples were obtained for toxicokinetic determinations from all animals at the following times: Day 1 at the end of infusion and 5, 10, 15, 30, 60 and 180 min later; […] and 24 h ± 30 min post-dose; Day 28 at the end of infusion and 5, 10, 15, 30, 60 and 180 min later; […] and 24 h ± 30 min post-dose. Blood samples were collected into lithium heparin test tubes and kept in an ice bath until centrifuging (1600 g for 10 min at 2–8 °C). The plasma obtained from each sample was transferred to a fresh polypropylenes test tubes, immediately frozen in dry ice and stored at − 20 °C ± 5. Bioanalytical samples were analysed by a validated liquid chromatographic mass spectrometric assay. Pharmacokinetic parameters were calculated using the computer program Phoenix WinNonlin version 6.3 (Certara USA, Inc).

[2] = female, beagle, in vivo, 4 mg/kg/day
[3] = male, beagle, in vivo, 0.5 mg/kg/day
[4] = male, beagle, in vivo, 4 mg/kg/day

In the case of `CC[C@H](C)[C@H](NC(=O)[C@H](CCCCN)NC(=O)[C@@H](N)CCCCN)C(=O)N[C@@H](CCCNC(=N)N)C(=O)N[C@H](C(=O)N[C@@H](CCCNC(=N)N)C(=O)N[C@@H](CC(C)C)C(=O)N[C@@H](CO)C(=O)N[C@@H](C)C(=O)NCCCC[C@H](NC(=O)[C@H](C)NC(=O)[C@H](CO)NC(=O)[C@H](CC(C)C)NC(=O)[C@H](CCCNC(=N)N)NC(=O)[C@@H](NC(=O)[C@H](CCCNC(=N)N)NC(=O)[C@@H](NC(=O)[C@H](CCCCN)NC(=O)[C@@H](N)CCCCN)[C@@H](C)CC)C(C)C)C(=O)NCCCC[C@H](NC(=O)[C@H](CCCCNC(=O)[C@H](C)NC(=O)[C@H](CO)NC(=O)[C@H](CC(C)C)NC(=O)[C@H](CCCNC(=N)N)NC(=O)[C@@H](NC(=O)[C@H](CCCNC(=N)N)NC(=O)[C@@H](NC(=O)[C@H](CCCCN)NC(=O)[C@@H](N)CCCCN)[C@@H](C)CC)C(C)C)NC(=O)[C@H](C)NC(=O)[C@H](CO)NC(=O)[C@H](CC(C)C)NC(=O)[C@H](CCCNC(=N)N)NC(=O)[C@@H](NC(=O)[C@H](CCCNC(=N)N)NC(=O)[C@@H](NC(=O)[C@H](CCCCN)NC(=O)[C@@H](N)CCCCN)[C@@H](C)CC)C(C)C)C(=O)NCCC(=O)O)C(C)C` [SET-M33] (I: H-KKIRVRLSAKK[βAla]-OH / II: H-KKIRVRLSAK / III: H-KKIRVRLSA / IV: H-KKIRVRLSA; amide I:10-IV:C, I:11-II:C, II:10-III:C (inferred); N-terminus and C-terminus assumed), the “effect on heart function, ECG parameters (heart rate, PR, QRS, QT and QTc intervals)” value (beagle dogs; beagle dogs, daily iv infusion at ≥ 0.5 mg/kg/day, males and females) is listed as “did not produce any observable effect on heart function”, the survival (beagle dogs; dogs, 0.5, 1.5 or 4.0 mg/kg/day 1-h iv infusion, 4 weeks + 4-week recovery) is listed as “All animals survived until their scheduled termination” and the efficacy dose (mouse) is listed as 5 mg/kg. The “Cmax and AUC0-24 relative to values predicted for a linear relationship” value ([1]; in vivo, 4 mg/kg/day) was “approximately 2.1 times”, the Cmax ([1]; in vivo, 0.5 mg/kg/day) was 82.8 ± 19.1 ng/mL and the tmax ([1]; in vivo, 0.5 mg/kg/day) was “EOI”. For the same compound, the tmax ([1]; in vivo, 1.5 mg/kg/day) was “EOI”, the tmax ([1]; in vivo, 4 mg/kg/day) was “EOI” and the AUC0-24 ([1]; female, beagle, in vivo, 0.5 mg/kg/day) was 45.6 ± 10.4 ng·h/mL. It also gave an AUC(0-t) ([1]; female, beagle, in vivo, 0.5 mg/kg/day, AUC0-24) of 76.5 ± 25.2 ng·h/mL, a Cmax ([1]; female, beagle, in vivo, 0.5 mg/kg/day, Cmax) of 125 ± 35 ng/mL and a Cmax ([1]; female, beagle, in vivo, 1.5 mg/kg/day) of 345 ± 87 ng/mL. The Cmax ([1]; female, beagle, in vivo, 1.5 mg/kg/day, Cmax) was 645 ± 121 ng/mL, the AUC0-24 [1, 2] was 991 ± 161 ng·h/mL and the Cmax [1, 2] was 1360 ± 220 ng/mL. For the same compound, the AUC(0-t) ([1]; female, beagle, in vivo, 4 mg/kg/day, AUC0-24) was 1550 ± 450 ng·h/mL, the Cmax ([1]; female, beagle, in vivo, 4 mg/kg/day, Cmax) was 1930 ± 350 ng/mL and the AUC0-24 [1, 3] was 42.2 ± 13.3 ng·h/mL. For the same compound, the Cmax [1, 3] was 82.4 ± 22.4 ng/mL, the AUC(0-t) ([1]; male, beagle, in vivo, 0.5 mg/kg/day, AUC0-24) was 83 ± 9.8 ng·h/mL and the Cmax ([1]; male, beagle, in vivo, 0.5 mg/kg/day, Cmax) was 149 ± 16 ng/mL. It also gave a Cmax ([1]; male, beagle, in vivo, 1.5 mg/kg/day) of 274 ± 110 ng/mL, an AUC(0-t) ([1]; male, beagle, in vivo, 1.5 mg/kg/day, AUC0-24) of 157 ± 60 ng·h/mL and a Cmax ([1]; male, beagle, in vivo, 1.5 mg/kg/day, Cmax) of 470 ± 218 ng/mL. It also gave an AUC0-24 [1, 4] of 569 ± 99 ng·h/mL, a Cmax [1, 4] of 816 ± 188 ng/mL and an AUC(0-t) ([1]; male, beagle, in vivo, 4 mg/kg/day, AUC0-24) of 1050 ± 150 ng·h/mL. The Cmax ([1]; male, beagle, in vivo, 4 mg/kg/day, Cmax) was 1490 ± 440 ng/mL and the AUC(0-t) ([1]; male, beagle, plasma, 1.5 mg/kg/day, male dogs, 1.5 mg/kg/day 1-h iv infusion, day 28, plasma, LC-MS, mean ± SD, n=5, read-out: AUC0-24) was 416 ± 209 ng·h/mL.
